Assay results: US20260014147A1, “STAT6 DEGRADERS” (Gilead Sciences, Inc., priority 2024, published 2026)

Molecular target: T1, STAT6 (endogenous, HiBiT-tagged) in HeLa LgBiT clone 4.14 cells (Homo sapiens, UniProt P42226)
T1 construct: These cells express endogenous STAT6; host or cells: HeLa LgBiT clone 4.14
T1 sequence (P42226 1-847): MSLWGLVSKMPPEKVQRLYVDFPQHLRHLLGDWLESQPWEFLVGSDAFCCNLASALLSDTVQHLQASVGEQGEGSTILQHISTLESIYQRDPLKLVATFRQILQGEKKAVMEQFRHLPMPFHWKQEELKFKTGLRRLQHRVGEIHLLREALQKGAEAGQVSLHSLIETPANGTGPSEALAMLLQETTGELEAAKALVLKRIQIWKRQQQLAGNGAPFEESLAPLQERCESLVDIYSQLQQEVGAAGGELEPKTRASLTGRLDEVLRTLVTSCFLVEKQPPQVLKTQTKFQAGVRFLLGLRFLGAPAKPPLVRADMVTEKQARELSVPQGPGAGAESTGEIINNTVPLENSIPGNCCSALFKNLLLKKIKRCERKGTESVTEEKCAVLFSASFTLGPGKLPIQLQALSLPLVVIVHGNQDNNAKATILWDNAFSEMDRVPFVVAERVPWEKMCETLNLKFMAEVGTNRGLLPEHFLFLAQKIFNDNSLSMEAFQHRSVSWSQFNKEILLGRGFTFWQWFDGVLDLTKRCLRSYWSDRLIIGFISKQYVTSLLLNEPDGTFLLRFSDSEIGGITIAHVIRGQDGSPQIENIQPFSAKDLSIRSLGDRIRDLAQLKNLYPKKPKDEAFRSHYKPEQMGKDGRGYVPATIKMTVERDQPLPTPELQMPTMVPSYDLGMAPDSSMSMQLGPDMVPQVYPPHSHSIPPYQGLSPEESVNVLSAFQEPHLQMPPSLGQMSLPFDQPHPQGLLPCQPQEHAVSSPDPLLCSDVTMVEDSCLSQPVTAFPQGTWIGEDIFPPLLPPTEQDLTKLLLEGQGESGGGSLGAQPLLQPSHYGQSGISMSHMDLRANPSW
Assay: STAT6 Degrader Assay (HiBiT based, HeLa LgBiT clone 4.14 cells, luminescence, DC50)
Assay type: cell-based
Details: DC50 provided for test compounds with >80% Emax, geometric mean, read-out: STAT6 degradation DC50
How it was run: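 Remaining STAT6 is read as NanoBiT luminescence after 0.5 h with Nano-Glo, in HeLa LgBiT clone 4.14 cells expressing endogenous HiBiT-tagged STAT6, following 4-24 h compound incubation at 37 °C. Full degradation is set by 50 µM terfenadine, which kills the cells; degradation plotted against log compound concentration.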

| SMILES | DC50 [nM] |
| --- | --- |
| C[C@@H](c1cc2c(-c3ccc(N)nc3)ccnc2n1C)N1CCC(c2ccc(C(=O)N3CCC(CN4CCN(c5ccc(NC6CCC(=O)NC6=O)cc5F)CC4C(F)(F)F)CC3)cc2)CC1 (mixture of isomers) [Example 2f9, 3-((4-(4-((1-(4-(1-((S)-1-(4-(6-aminopyridin-3-yl)-1-methyl-1H-pyrrolo[2,3-b]pyridin-2-yl)-ethyl)piperidin-4-yl)benzoyl)piperidin-4-yl)methyl)-3-(trifluoromethyl)-piperazin-1-yl)-3-fluorophenyl)-amino)piperidine-2,6-dione] | 69.2 |

Same assay, conditions: Emax provided for test compounds with <80% Emax (and 2c15), geometric mean, read-out: STAT6 degradation Emax

| SMILES | Emax [%] |
| --- | --- |
| Cn1c(CN2CCC(c3ccc(C(=O)N4CCC(CN5CCN(Cc6ccc(NC7CCC(=O)NC7=O)cc6F)CC5)CC4)cc3)CC2)cc2c(-c3ccc(N)nc3)ccnc21 (stereo not drawn) [Example 2s2, 3-((4-((4-((1-(4-(1-((4-(6-aminopyridin-3-yl)-1-methyl-1H-pyrrolo[2,3-b]pyridin-2-yl)methyl)piperidin-4-yl)benzoyl)piperidin-4-yl)methyl)piperazin-1-yl)methyl)-3-fluorophenyl)amino)piperidine-2,6-dione] | 40 to 50 |
| Cn1c(CN2CCC(c3ccc(C(=O)N4CCC(CN5CCN(C(=O)c6ccccc6NC6CCC(=O)NC6=O)CC5)CC4)cc3)CC2)cc2c(-c3ccc4[nH]ncc4c3)ccnc21 (stereo not drawn) [Example 2t2, 3-((2-(4-((1-(4-(1-((4-(1H-indazol-5-yl)-1-methyl-1H-pyrrolo[2,3-b]pyridin-2-yl)methyl)-piperidin-4-yl)benzoyl)piperidin-4-yl)methyl)piperazine-1-carbonyl)phenyl)amino)piperidine-2,6-dione] | < 20 |
| Cn1c(CN2CCC(c3ccc(C(=O)N4CCC(CN5CCN(c6ccc(NC7CCC(=O)NC7=O)nc6)CC5)CC4)cc3)CC2)cc2c(-c3ccc4[nH]ncc4c3)ccnc21 (stereo not drawn) [Example 2t3, 3-((5-(4-((1-(4-(1-((4-(1H-indazol-5-yl)-1-methyl-1H-pyrrolo[2,3-b]pyridin-2-yl)methyl)piperidin-4-yl)benzoyl)piperidin-4-yl)methyl)piperazin-1-yl)pyridin-2-yl)amino)piperidine-2,6-dione] | 40 to 50 |
| Cn1c(CN2CCC(c3ccc(C(=O)N4CCC(OCC#Cc5cccc(NC6CCC(=O)NC6=O)c5)CC4)cc3)CC2)cc2c(-c3ccc4[nH]ncc4c3)ccnc21 (stereo not drawn) [Example 2t5, 3-((3-(3-((1-(4-(1-((4-(1H-indazol-5-yl)-1-methyl-1H-pyrrolo[2,3-b]pyridin-2-yl)methyl)-piperidin-4-yl)benzoyl)piperidin-4-yl)oxy)prop-1-yn-1-yl)phenyl)amino)-piperidine-2,6-dione] | 30 to 40 |

Tested on: Eotaxin-3 (CCL26) release in human whole blood stimulated with IL-4
Assay: Human Whole Blood Eotaxin-3 Assay (IL-4 stimulated, inhibition of eotaxin-3 release)
Assay type: cell-based
Details: Homo sapiens, EC50 provided for test compounds with >80% Emax, geometric mean across assay runs and batches
Experimental: This was a human whole blood assay using recombinant human Interleukin 4 to stimulate the blood and measuring the ability of the test compounds to inhibit eotaxin-3 release. The biological activities of the test compounds have been tested in human whole blood stimulated with IL-4 measuring Eotaxin-3 release. The test compounds were added to 384 well clear flat-bottom plate in a 4-fold serial dilution in triplicates using a liquid handler. Human whole blood stabilized in lithium-heparin tubes was added in a volume of 65 uL per well, resulting in a final DMSO concentration of 0.5%. The plate is incubated for 2 h at 37° C. under 5% CO2/95% air. Subsequently, 5 μL of recombinant human IL-4 (R&D Systems, cat #204-ILB) was added to the wells to a final concentration of 400 pM. The plate was incubated for 48 h at 37° C. under 5% CO2/95% air. The plate was spun down for 10 minutes at 500×g and 20 uL supernatant was harvested and transferred to a 384 well v-bottom plate using a liquid handler and stored at −20° C. until further analysis. 10 uL supernatant was used to measure the level of Eotaxin-3 (CCL26) using Human Eotaxin-3 MSD kit from Mesocsale (Cat #K251UEK-4). The assay was performed according to the manufacture instructions.
The data from the human whole blood eotaxin-3 assay is shown below for Examples 2q11, 2110, and 2c49 (where the effect in % is plotted against the test concentration in M on a log-scale).

| SMILES | EC50 [nM] |
| --- | --- |
| C[C@@H](c1cc2c(-c3ccc(N)nc3)ccnc2n1C)N1CCC(c2ccc(C(=O)N3CCC(CN4CCN(c5ccc(NC6CCC(=O)NC6=O)cc5F)C[C@H]4C(F)(F)F)CC3)cc2)CC1 (single isomer, unassigned) [Example 2f10] | 385 |
| CNc1ccc(-c2ccnc3c2cc([C@H](C)N2CC=C(c4c(C)cc(C(=O)N5CCn6nc(CN7CCC(c8ccc(NC9CCC(=O)NC9=O)c(OC)c8)CC7)cc6C5)cc4F)CC2)n3C)cn1 (stereo partly drawn) [Example 2c49, 3-((4-(1-((5-(3-fluoro-5-methyl-4-(1-((S)-1-(1-methyl-4-(6-(methylamino)pyridin-3-yl)-1H-pyrrolo[2,3-b]pyridin-2-yl)ethyl)-1,2,3,6-tetrahydropyridin-4-yl)benzoyl)-4,5,6,7-tetrahydropyrazolo[1,5-a]pyrazin-2-yl)methyl)piperidin-4-yl)-2-methoxyphenyl)amino)piperidine-2,6-dione] | 3 |
| COCc1nc2cc(-c3ccnc4c3cc(CN3CCC(c5ccc(C(=O)N6CCn7nc(CN8CCC(c9ncc(NC%10CCC(=O)NC%10=O)cc9F)CC8)cc7C6)cc5)CC3)n4C)ccc2[nH]1 (stereo not drawn) [Example 2q8, 3-((5-fluoro-6-(1-((5-(4-(1-((4-(2-(methoxymethyl)-1H-benzo[d]imidazol-5-yl)-1-methyl-1H-pyrrolo[2,3-b]pyridin-2-yl)methyl)piperidin-4-yl)benzoyl)-4,5,6,7-tetrahydropyrazolo[1,5-a]pyrazin-2-yl)methyl)piperidin-4-yl)pyridin-3-yl)amino)piperidine-2,6-dione] | 25.1 |

Further lines, results first:

| EC50 [nM] | SMILES |
| --- | --- |
| 249 | C[C@@H](c1cc2c(-c3ccc(N)nc3)ccnc2n1C)N1CCC(c2ccc(C(=O)N3CCC(CN4CCN(c5ccc(NC6CCC(=O)NC6=O)cc5F)CC4C(F)(F)F)CC3)cc2)CC1 (mixture of isomers) [Example 2f9, 3-((4-(4-((1-(4-(1-((S)-1-(4-(6-aminopyridin-3-yl)-1-methyl-1H-pyrrolo[2,3-b]pyridin-2-yl)-ethyl)piperidin-4-yl)benzoyl)piperidin-4-yl)methyl)-3-(trifluoromethyl)-piperazin-1-yl)-3-fluorophenyl)-amino)piperidine-2,6-dione] |
| 406 | C[C@@H](c1cc2c(-c3ccc(N)nc3)ccnc2n1C)N1CCC(c2ccc(C(=O)N3CCC(CN4CCN(c5ccc(NC6CCC(=O)NC6=O)cc5F)C[C@@H]4C(F)(F)F)CC3)cc2)CC1 (single isomer, unassigned) [Example 2f11] |
| 112 | COc1cc(N2CCN(CC3CCN(C(=O)c4ccc(C5CCN([C@@H](C)c6cc7c(-c8ccc(N)nc8)ccnc7n6C)CC5)cc4)CC3)CC2)ccc1NC1CCC(=O)NC1=O (stereo partly drawn) [Example 2c40, 3-((4-(4-((1-(4-(1-((S)-1-(4-(6-aminopyridin-3-yl)-1-methyl-1H-pyrrolo[2,3-b]pyridin-2-yl)ethyl)piperidin-4-yl)benzoyl)piperidin-4-yl)methyl)piperazin-1-yl)-2-methoxyphenyl)amino)piperidine-2,6-dione] |
| 197 | CNc1ccc(-c2ccnc3c2cc([C@H](C)N2CC=C(c4c(C)cc(C(=O)N5CCC(CN6CCN(c7ccc(NC8CCC(=O)NC8=O)cc7F)C[C@@H]6C)CC5)cc4F)CC2)n3C)cn1 (stereo partly drawn) [Example 2c47, 3-((3-fluoro-4-((S)-4-((1-(3-fluoro-5-methyl-4-(1-((S)-1-(1-methyl-4-(6-(methylamino)pyridin-3-yl)-1H-pyrrolo[2,3-b]pyridin-2-yl)ethyl)-1,2,3,6-tetrahydropyridin-4-yl)benzoyl)piperidin-4-yl)methyl)-3-methylpiperazin-1-yl)phenyl)amino)piperidine-2,6-dione] |
| 265 | C[C@H]1CN(c2ccc(NC3CCC(=O)NC3=O)cc2F)CCN1CC1CCN(C(=O)c2ccc(C3CCN([C@@H](C)c4cc5c(-c6ccc(N)nc6)ccnc5n4C)CC3)cc2)CC1 (stereo partly drawn) [Example 2c54, 3-((4-((S)-4-((1-(4-(1-((S)-1-(4-(6-aminopyridin-3-yl)-1-methyl-1H-pyrrolo[2,3-b]pyridin-2-yl)ethyl)piperidin-4-yl)benzoyl)piperidin-4-yl)methyl)-3-methylpiperazin-1-yl)-3-fluorophenyl)amino)piperidine-2,6-dione] |
| 247 | C[C@H]1CN(c2ncc(NC3CCC(=O)NC3=O)cc2F)CCN1CC1CCN(C(=O)c2ccc(C3CCN([C@@H](C)c4cc5c(-c6ccc(N)nc6)ccnc5n4C)CC3)cc2)CC1 (stereo partly drawn) [Example 2c55, 3-((6-((S)-4-((1-(4-(1-((S)-1-(4-(6-aminopyridin-3-yl)-1-methyl-1H-pyrrolo[2,3-b]pyridin-2-yl)ethyl)piperidin-4-yl)benzoyl)piperidin-4-yl)methyl)-3-methylpiperazin-1-yl)-5-fluoropyridin-3-yl)amino)piperidine-2,6-dione] |
| 37.8 | C[C@@H](c1cc2c(-c3ccc(N)nc3)ccnc2n1C)N1CCC(c2ccc(C(=O)N3CCn4nc(CN5CCN(c6ccc(NC7CCC(=O)NC7=O)cc6F)CC5)cc4C3)cc2)CC1 (stereo partly drawn) [Example 2q15, 3-((4-(4-((5-(4-(1-((S)-1-(4-(6-aminopyridin-3-yl)-1-methyl-1H-pyrrolo[2,3-b]pyridin-2-yl)-ethyl)piperidin-4-yl)benzoyl)-4,5,6,7-tetrahydropyrazolo[1,5-a]pyrazin-2-yl)methyl)piperazin-1-yl)-3-fluoro-phenyl)amino)piperidine-2,6-dione] |
